In ChEMBL document CHEMBL1128058, “Synthesis of novel iodinated radioligands with high affinity and selectivity for CCK-B/gastrin receptors” (Bioorg Med Chem Lett, 1995) one finds Ki data, which are given here for two compounds.

The term Ki denotes the equilibrium dissociation constant of an inhibitor or competing ligand from its target. A lower Ki goes with a stronger hold on the target.

Assay [1] addresses T1, Gastrin/cholecystokinin type B receptor (Mus musculus, UniProt P56481).
T1 sequence (P56481 whole entry): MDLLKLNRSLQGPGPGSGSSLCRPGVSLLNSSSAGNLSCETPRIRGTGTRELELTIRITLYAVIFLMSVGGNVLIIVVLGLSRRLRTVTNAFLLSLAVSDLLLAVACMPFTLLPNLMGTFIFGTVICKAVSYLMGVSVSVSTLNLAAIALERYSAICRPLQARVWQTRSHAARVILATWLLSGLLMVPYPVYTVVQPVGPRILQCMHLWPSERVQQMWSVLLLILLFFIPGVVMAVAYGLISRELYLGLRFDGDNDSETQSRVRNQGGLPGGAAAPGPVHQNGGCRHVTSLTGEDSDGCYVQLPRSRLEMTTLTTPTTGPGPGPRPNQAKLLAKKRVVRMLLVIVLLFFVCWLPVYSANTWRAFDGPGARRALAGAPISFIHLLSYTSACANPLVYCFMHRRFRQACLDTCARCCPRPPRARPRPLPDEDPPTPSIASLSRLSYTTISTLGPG
The experiment in a line: Binding affinity towards CCK-B receptor in mouse cerebral cortex membrane using [125I]bolton assay. Format: cell membranes.

The target in assay [2] is T2, Cholecystokinin receptor type A (Rattus norvegicus, UniProt P30551).
T2 sequence (P30551 whole entry): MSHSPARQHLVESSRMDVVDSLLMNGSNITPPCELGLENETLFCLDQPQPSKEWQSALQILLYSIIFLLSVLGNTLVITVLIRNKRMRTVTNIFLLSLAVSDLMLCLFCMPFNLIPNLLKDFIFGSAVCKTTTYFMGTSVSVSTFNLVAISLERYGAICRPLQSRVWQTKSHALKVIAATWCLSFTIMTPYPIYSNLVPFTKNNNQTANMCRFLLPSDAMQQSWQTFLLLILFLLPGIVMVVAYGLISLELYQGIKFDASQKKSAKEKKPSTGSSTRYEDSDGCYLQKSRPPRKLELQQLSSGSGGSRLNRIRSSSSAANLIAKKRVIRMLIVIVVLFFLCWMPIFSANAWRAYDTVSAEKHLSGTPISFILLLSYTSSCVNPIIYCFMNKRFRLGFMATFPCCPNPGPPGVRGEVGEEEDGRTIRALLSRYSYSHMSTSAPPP
Kind of assay: Binding affinity towards CCK-A receptor in rat pancreas membrane using Hunter labelled CCK-8S assay. It counts as cell membranes.

As to `C[C@](Cc1c[nH]c2ccccc12)(NC(=O)OC1C2CC3CC(C2)CC1C3)C(=O)N[C@@H](CC(=O)O)Cc1ccc(N=[N+]=[N-])c(I)c1` (some centres undefined), the Ki in assay [1] was found to be 0.88 nM; in assay [2] it was 392 nM.
For the compound `C[C@](Cc1c[nH]c2ccccc12)(NC(=O)OC1C2CC3CC(C2)CC1C3)C(=O)N[C@@H](CC(=O)O)Cc1ccc(N)c(I)c1` (some centres undefined), the Ki in assay [1] was 0.52 nM; in assay [2], 158 nM.
